Values joined by “and” are separate entries in the source; they are usually repeats but may differ in a detail not shown here. Equal entries are not always repeated.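 Results reflect a 48-hour exposure of cells in 96-well plates to compound at five concentrations. At the GI50, growth is halved. TGI marks complete inhibition of growth.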
Columns and labels:
Assay in all cases: DTP human tumour cell line panel, 48 h
SN12C renal = test system: SN12C renal
SNB-75 CNS = test system: SNB-75 CNS
T-47D breast = test system: T-47D breast
HCT-116 colon = test system: HCT-116 colon
CCRF-CEM leukemia = test system: CCRF-CEM leukemia
UACC-62 melanoma = test system: UACC-62 melanoma
HCT-15 colon = test system: HCT-15 colon
DU-145 prostate = test system: DU-145 prostate
NCI-H226 lung = test system: NCI-H226 lung
SK-MEL-2 melanoma = test system: SK-MEL-2 melanoma

Structure (SMILES) | TGI (SN12C renal) | TGI (SNB-75 CNS) | TGI (T-47D breast) [µM] | TGI (HCT-116 colon) | TGI (CCRF-CEM leukemia) | TGI (UACC-62 melanoma) | TGI (HCT-15 colon) | TGI (DU-145 prostate) | TGI (NCI-H226 lung) | TGI (SK-MEL-2 melanoma) | GI50 (SNB-75 CNS) | GI50 (HCT-15 colon)
FC(F)(F)c1ccccc1C1SCC2=Nc3ccccc3CN21 (configuration not stated) | > 100 µM | 36.5 µM | 38.4 | 23.1 µM | 95 µM | 26.1 µM | 27.1 µM | 25.4 µM | 26.7 µM | – | – | –
Cn1c(=O)c2[nH]c(N=O)nc2n(C)c1=O | > 100 µM | > 100 µM | > 100 | > 100 µM | – | > 100 µM | > 100 µM | > 100 µM | > 100 µM | > 100 µM | – | –
O=S(O)CCCCCSSc1ccccc1 | > 100 µM | 99.5 µM | – | 70.2 µM | 50.3 µM | 79.9 µM | – | – | – | 53.3 µM | – | –
CC(C)C1CNC(=O)C2(C=NC(C(C)C)CNC(=O)C3(C=N1)CCCO3)CCCO2 (configuration not stated) | > 10 µM | > 10 µM | > 10 | > 10 µM | > 10 µM | > 10 µM | > 10 µM | > 10 µM | – | – | – | –
Cc1ccc(S(=O)c2cccs2)cc1 (configuration not stated) | > 100 µM | – | > 100 | > 100 µM | > 100 µM | – | > 100 µM | > 100 µM | > 100 µM | – | – | –
O=C(Nc1ccc([N+](=O)[O-])cc1)Nn1cnnc1 | – | > 100 µM | > 100 | > 100 µM | > 100 µM | > 100 µM | > 100 µM | > 100 µM | 2.31 µM | > 100 µM | – | –
O=C1OC(c2ccccc2)=NC1c1ccccc1 (configuration not stated) | > 100 µM | > 100 µM | > 100 | > 100 µM | > 100 µM | > 100 µM | > 100 µM | > 100 µM | > 100 µM | – | – | –
Cc1c(O)c(=O)ccn1CCN | > 100 µM | > 100 µM | – | > 100 µM | > 100 µM | > 100 µM | > 100 µM | – | > 100 µM | > 100 µM | – | –
CN(C)CCNc1ccc2ncn3c4ccccc4c(=O)c1c23 | 38.4 µM | 16 µM | – | 12 µM | > 100 µM | 12.3 µM | 13.9 µM | – | 6.05 µM | 10.1 µM | – | –
N#C/C(=C\c1ccncc1)c1csc2ccccc12 | > 74.8 µM | 78.5 µM | – | 33.4 µM | 55.8 µM | > 76.4 µM | 77.4 µM | – | > 77.1 µM | 42.2 µM | – | –
O=NN1C(c2ccccc2)CNC(=O)CC1c1ccccc1 (configuration not stated) | > 100 µM | > 67.9 µM | – | > 100 µM | > 100 µM | > 100 µM | > 100 µM | – | > 100 µM | > 80 µM | – | –
COc1cc2c(c(OC)c1OC)-c1ccc(SC)c(=O)cc1[C@@H](NCc1ccc(F)cc1)CC2 | 20.8 µM | – | – | 0.079 µM | 10.2 µM and > 100 µM | – | 7.64 µM | – | – | – | – | –
COc1cc(OC2OC(CO)C(O)C(O)C2O)c2c(O)c3c(=O)cc(C)oc3cc2c1 (configuration not stated) | – | > 100 µM | > 100 | > 100 µM | > 100 µM | > 100 µM | > 100 µM | > 100 µM | > 100 µM | > 100 µM | – | –
O=C(CNc1ccccn1)Nn1cnc2ccc(S(=O)(=O)Nc3ccccn3)cc2c1=O | > 100 µM | > 100 µM | – | > 100 µM | > 100 µM | > 100 µM | > 100 µM | > 100 µM | > 100 µM | > 100 µM | – | –
C=CCCC1(O)C(O)C(CO)O[C@H](O[C@@]2(CO)OC(CO)C(O)C2O)C1O (some centres not stated) | > 100 µM | > 100 µM | – | > 100 µM | > 100 µM | – | > 100 µM | > 100 µM | > 100 µM | – | – | –
CCOC1OC(CO)C(O)CC1n1ccc(=O)[nH]c1=O (configuration not stated) | > 100 µM | > 100 µM | > 100 | > 100 µM | – | > 100 µM | > 100 µM | > 100 µM | > 100 µM | > 100 µM | – | –
CC1=CC2C(C=C1)S(=O)(=O)N1CC21c1ccccc1 (configuration not stated) | > 100 µM | > 100 µM | – | > 100 µM | > 100 µM | > 100 µM | > 100 µM | – | – | > 100 µM | – | –
O=C(Cc1ccccc1)NN1C(=O)C(Cl)C1c1ccccc1Cl (configuration not stated) | > 100 µM | > 100 µM | – | > 100 µM | 55.8 µM | > 100 µM | > 100 µM | – | > 100 µM | > 100 µM | – | –
O=Cc1c[nH]c2c(=O)[nH]cnc12 | > 100 µM | > 100 µM | – | > 100 µM | > 100 µM | > 100 µM | > 100 µM | – | – | > 100 µM | – | –
O=C/C(=C1/C=Cc2cc([N+](=O)[O-])ccc2S1)c1ccccc1 | > 100 µM | > 100 µM | > 100 | > 100 µM | > 100 µM | – | > 100 µM | > 100 µM | > 100 µM | > 100 µM | – | –
C[N+](C)(CCCCCC[N+](C)(C)CCCN1C(=O)c2cccc3cccc(c23)C1=O)CCCN1C(=O)c2cccc3cccc(c23)C1=O | > 100 µM | – | > 100 | > 100 µM | > 100 µM | > 100 µM | > 100 µM | > 100 µM | – | > 100 µM | – | –
O=C(O)c1nc2ccccc2nc1Nc1ccc(Cl)c(Cl)c1 | > 100 µM | > 100 µM | 72.1 | 76.7 µM | > 100 µM | – | 36.1 µM | > 100 µM | > 100 µM | – | – | –
FC(F)(F)c1ccc2c(c1)N(CCCNCCN1CCOCC1)c1ccccc1S2 | 26.9 µM | 20.9 µM | – | 11.2 µM | 30.4 µM | 27.8 µM | 19.5 µM | – | – | 13.9 µM | – | –
Nc1nc(NNc2cccc(F)c2)cc(=O)[nH]1 | > 100 µM | – | – | 61.2 µM | > 100 µM | – | > 100 µM | > 100 µM | > 100 µM | – | – | –
CC1=CC(=O)CC2(C)CCC(C(C)CC(=O)CC(C)C)CC12OO (configuration not stated) | 38 µM and 33.8 µM | 44.9 µM and > 100 µM | – | 30.2 µM and 29.7 µM | 59.8 µM and 46.6 µM | 31.9 µM and 35.2 µM | 30.1 µM and > 100 µM | 32.3 µM and 29.5 µM | 43.5 µM and 37.7 µM | 37.9 µM and 31.9 µM | 19.8 µM and 55.7 µM | 16.5 µM and 35.3 µM
CSc1ncnc2c1cnn2Cc1cn(COCCO)nn1 | > 100 µM | – | > 100 | > 100 µM | > 100 µM | > 100 µM | > 100 µM | > 100 µM | > 100 µM | > 100 µM | – | –
